In one assay the target is T1, HOIP RBR C885S (Homo sapiens, UniProt Q96EP0, C885S).
T1 construct: 697-1072; made in house; host or cells: E. coli BL21-GOLD(DE3)
Nature of the assay: Protein LC-MS labeling of active-site mutant. Type of assay: binding. The following applies: 200 μM compound (100-fold excess), 2 μM protein, 4 h. As for the experimental part: negative control and compound solutions data points were acquired after 0.5, 4, and 24 h […]
Protocol as described above, using the HOIP RBR C885S mutant (155 µM stock solution in 50 mM HEPES, 150 mM NaCl, 1 mM DTT, pH 7.5) and 50 mM HEPES, 150 mM NaCl, pH 7.5 buffer.
The stock solution at 4 µM (25 µL per sample, final concentration 2 µM, 87 µg/mL), was mixed with buffer (24.5 µL) and compound (5) (0.5 µL of 2, and 20 mM stock solutions in DMSO, giving a final concentration of 20 and 200 µM respectively, and 1% DMSO). Data points were acquired after 0.5 and 4 h incubation.
The HOIP RBR domain wild type was diluted with 50 mM HEPES, 150 mM NaCl, pH 7.5 buffer to afford a new stock solution at 2.02 µM, which was aliquoted into 10 × 297 µL. […]
thawed individually and analyzed by protein mass spectrometry as described above. The total ion counts (TICs) detected for unlabelled HOIP and labelled HOIP-(5) conjugate within a peak elution range of 10 seconds were used to calculate the ratio of labelled HOIP RBR over total HOIP RBR content for each sample. The averaged data from 3 independent experiments were analyzed according to a two-step model of reversible ligand binding followed by irreversible covalent modification (Supplementary Figure S2A),11 fitted to a single exponential equation (equation 1, Supplementary Figure S2B) using GraFit (v.7). […]

Assay [1] relates to NF-κB activation in HEK293T cells overexpressing full length HOIP, HOIL-1L, and SHARPIN. Nature of the assay: NF-κB Luciferase reporter assay. The class given is cell-based. To be noted: Homo sapiens, HEK-293T; overnight (17 h) treatment; estimated; read-out: IC50, inhibition of NF-κB activation. As for the experimental part:
suspensions were agitated at 4 °C overnight. The supernatants were removed and kept on ice, and the beads were washed with wash buffer (2 × 0.5 mL), PBS (2 × 0.5 mL), and 50 mM HEPES, 150 mM NaCl, pH 7.5 buffer (2 × 0.5 mL).
A polyubiquitination assay master mix was prepared by mixing E1, UbcH7, ubiquitin, MgCl2, in buffer (50 mM HEPES, 150 mM NaCl, pH 7.5). The solution (30 µL per sample) was added to the beads, and lastly ATP (0.6 µL of 100 mM stock) was added to initiate the reaction. Final concentrations were E1 (0.2 µM), UbcH7 E2 (1 µM), ubiquitin (10 µM), MgCl2 (4 mM), ATP (2 mM). The vials were incubated (Eppendorf Thermomixer) at 25 °C, 900 rpm for 1.5 h. […] All samples were analyzed by SDS PAGE and Western Blot (Figure 6C and Supplementary Figure S13) as described in sections 4.5 and 4.6. […]
Reporter assays: After incubating the plates for 17 h, Firefly and Renilla Luciferase activity was analyzed using the Dual-Luciferase® Reporter Assay System (Promega) and a BertholdTech […]
with Mikrowin 2000 software version 4.41: using its injectors to inject 100 µL LAR II and 100 µL Stop&Glo (see manufacturer’s instructions; Promega #E1960). NF-κB regulated luciferase activity was first normalized to Renilla luciferase activity and then the fold activation relative to cells transfected with empty vector calculated. […]
reader. […]

Results on two compounds are retold here after article PMC6383986, “Fragment-Based Covalent Ligand Screening Enables Rapid Discovery of Inhibitors for the RBR E3 Ubiquitin Ligase HOIP” (Journal of the American Chemical Society, 2019).

A word on the IC50: it is the midpoint of a concentration-inhibition curve.

Entries after “also recorded” stand apart in the source; their conditions may differ.

T1 sequence (Q96EP0 697-1072 C885S): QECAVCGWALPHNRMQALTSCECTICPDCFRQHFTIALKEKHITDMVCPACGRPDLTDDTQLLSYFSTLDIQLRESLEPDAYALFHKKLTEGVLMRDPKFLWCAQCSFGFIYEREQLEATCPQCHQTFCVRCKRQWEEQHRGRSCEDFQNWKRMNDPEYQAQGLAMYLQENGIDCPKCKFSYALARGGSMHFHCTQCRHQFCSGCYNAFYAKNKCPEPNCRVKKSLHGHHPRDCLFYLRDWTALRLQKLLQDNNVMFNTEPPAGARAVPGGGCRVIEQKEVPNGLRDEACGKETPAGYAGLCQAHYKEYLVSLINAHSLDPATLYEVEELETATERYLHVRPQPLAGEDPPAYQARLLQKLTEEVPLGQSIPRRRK

`COC(=O)/C=C/CNC(=O)c1cc2c([nH]c1=O)CCC2` [Compound 5]: the “labeling of HOIP RBR C885S” value on HOIP RBR C885S is on record as “did not result in protein labeling; also recorded: not labeled”. Consider `COC(=O)/C=C/CNC(=O)c1cc2c([nH]c1=O)CCCC2` [Compound 11a], for which the IC50 in assay [1] is 37 ± 4 µM.
